The results in this text go back to patent US9670242B2, “Tetracyclic anthraquinone derivatives” (Tianjin Hemay Bio-Tech Co., Ltd, priority 2012, dated 2017).

The structures appear in SMILES notation.

One series has as its system NCI-H460 cells. In words: NCI-H460 cell growth inhibition test (MTT assay). The series is classed as cell-based, human. As to conditions: NCI-460 cells (NCI-H460 in method), 72 h. The procedure: NCI-H460 Cell Growth Inhibition Test (MTT Assay)
II. Reagents and Consumable Materials
Culture medium: 90% RPMI1640+10% FBS (fetal calf serum); Pancreatin (0.25% (w/v) solution was formulated with PBS, 0.53 mM of EDTA was added in the formulation); PBS; 96-well culture plate.
1. A plate (10 cm) of cells in logarithmic growth phase that were normally cultured was collected;
2. The culture solution was sucked out. The plate was washed with 5 mL of PBS once or twice;
3. PBS was sucked out. 1.5 mL of 0.25% pancreatin was added to the plate to infiltrate the cells for 1 min;
4. The culture plate was placed in an incubator. Digestion was carried out for about 3 min at 37° C.;
5. 3 mL of complete culture solution was added to the culture plate to stop the digestion. The cells were carefully scoured with micropipette (1 mL) to give a uniform cell suspension. The suspension was implanted into a 96-well cell culture disc by 2000 cells/100 μL per well. The culture plate was incubated overnight under 5% CO2 at 37° C. In day 2, 100 μL of culture solution comprising a compound was added in each well. The plate was further incubated for 72 h under 5% CO2 at 37° C.;
6. The culture solution was sucked out;
7. 100 μL of serum-free culture solution containing 0.5 mg/mL MTT was added in each well. The plate was incubated for 3 h;
8. The culture solution was carefully sucked out;
9. […]
10. OD values were determined at 490 nM. […]

The next series concerns mice of ICR strain. In words: Assay on MTD (maximum tolerated dose) in vivo of mice. The conditions noted are these: for MTD: caudal vein injection, q4d×5 administration regimen; for Mortality Rate (%) / Number of Dead Animals ♂/♀: i.v., 5♂/5♀ per group; for Number of Dead Animals ♂/♀: 5 administrations. Here is the method: Assay on MTD (Maxium Tolerated Dose) In Vivo of Mice
Assay on Maxium Tolerated Dose of Compound
Assay animals: mice of ICR strain with a weight of 18-22 g, purchased from Beijing Vital River Laboratories Limited, License SCXK (jing) 2007-0001.
Administration Regimen: each experimental animal was administered with corresponding dosage of tested substance once by injection of caudal vain every three days. Each dosage was initially designed as 5 times of administration. The specific time of administration depended on the conditions of the animals. It should be carefully observed the behavior conditions of the animals within 2 hours after administration. The animal's behavior was observed every 4 hours in the day of administration. The survival conditions and weight of animals were recorded every day and observed for whether abnormality occurred on the body surface thereof. The experimental animals were sacrificed on 14 day after administration and dissected for observation.
I group: (20 mg/kg) group;
II group: (25 mg/kg) group;
III group: (30 mg/kg) group;
IV group: solvent control group;
There were four groups in total. Each group consisted of five male mice and five female mice.
I group: (40 mg/kg) group;
II group: (45 mg/kg) group;
III group: (50 mg/kg) group;
IV group: (55 mg/kg) group;
V group: (60 mg/kg) group;
There were five groups in total. Each group consisted of six male mice and six female mice.
a represents that the experimental animal died immediately after the injection of drug rather than death caused by cytotoxicity.
I group: (30 mg/kg) group;
II group: (40 mg/kg) group;
IV group: (60 mg/kg) group;

A short description of series [1]: Solubility of the compound in water. It is filed as physicochemical.

With `COc1cccc2c1C(=O)c1c(O)c3c(c(O)c1C2=O)CC(O)(C(=O)COC(=O)CCC(=O)O)CC3OC1CC(n2cccc2)C(O)C(C)O1` (stereo not drawn) [Compound A, 3′-pyrrolyldoxorubicin-14-oxo-succinic acid monoester, reference compound], the half-inhibitory concentration (IC50) in the series with NCI-H460 cells was found to be 21 nM. In addition, the values for the MTD entry in the series with mice of ICR strain and in the series with mice of ICR strain (molar equivalent) were “approximately 30 mg/kg” and about 0.0433 mmol/kg, respectively. Also, the “Mortality Rate (%)” value worked out at 10% with mice of ICR strain (30 mg/kg, 5 administrations (total 150 mg/kg)); 50% in the series with mice of ICR strain (40 mg/kg, 5 administrations (total 200 mg/kg)); 100% in the series with mice of ICR strain (50 mg/kg, 5 administrations (total 250 mg/kg)); 100% with mice of ICR strain (60 mg/kg, 5 administrations (total 300 mg/kg)). Further, the “Number of Dead Animals ♂/♀” value is 0/1 in the series with mice of ICR strain (30 mg/kg), 3/2 with mice of ICR strain (40 mg/kg), 5/5 in the series with mice of ICR strain (50 mg/kg) and 5/5 in the series with mice of ICR strain (60 mg/kg).
Take `CC(=O)O.COc1cccc2c1C(=O)c1c(O)c3c(c(O)c1C2=O)CC(O)(C(=O)COC(=O)CCC(=O)NCCCN1CCN(C)CC1)CC3O[C@H]1C[C@H](n2cccc2)[C@H](O)[C@H](C)O1` (stereo partly drawn) [Example 81, 10-((3′-(pyrrol-1-yll)-2′,3′,6′-trideoxy-alphal-l-lyxo-hexylpyranyl)oxy)-7,8,9,10-tetrahydro-6,8,11-trihydroxy-13-oxo-14-(4-((3-(4-methylpiperazin-1-yl)propyl)amino)-4-oxo-butyrato)-1-methoxy-5,12-naphthalenedione acetate]: the “solubility of the compound in water” value in series [1] is “more than 7 mg/ml”.
